From ChEMBL document CHEMBL1130985, “A novel super-potent neurokinin A receptor antagonist containing dehydroalanine” (Bioorg Med Chem Lett, 1998)
Numbered stars: 1 amine (or outer) side, 2 acyl side, 3 side chain; on linkers, the order of the positions; unused ones are H or OH. Bridge positions count the residues as written; N and C are the ends. Square brackets hold non-standard residues; d marks the D form. Peptide text beside a SMILES is read from it. X1 = O=C([C@@H](CN[*:1])CSCC1O[C@@H](O)C(O)[C@H](O)[C@H]1O)[*:2]; Dap = NC[C@H](N)C(=O)O; Dha = C=C(N)C(=O)O

Experiments:
[1] = biological target: T1, Substance-K receptor (Rattus norvegicus) (UniProt P16610); experiment: Antagonistic activity against Tachykinin receptor 2 in rat vas deferens at 100 nM concentration; assay type: functional
T1 sequence (whole entry): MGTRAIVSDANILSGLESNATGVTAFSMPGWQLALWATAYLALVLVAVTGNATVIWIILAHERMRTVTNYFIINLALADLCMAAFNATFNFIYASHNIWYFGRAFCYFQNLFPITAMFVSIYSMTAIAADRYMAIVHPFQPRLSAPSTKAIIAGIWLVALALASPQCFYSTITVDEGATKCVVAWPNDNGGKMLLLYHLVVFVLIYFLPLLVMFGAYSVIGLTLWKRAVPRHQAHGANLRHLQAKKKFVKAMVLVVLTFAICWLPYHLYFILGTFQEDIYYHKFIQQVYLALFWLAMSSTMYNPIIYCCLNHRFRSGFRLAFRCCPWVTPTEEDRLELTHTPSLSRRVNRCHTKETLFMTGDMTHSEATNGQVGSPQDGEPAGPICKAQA

[2] = biological target: T1, Substance-K receptor (Rattus norvegicus); experiment: Antagonistic activity against Tachykinin receptor 2 in rat vas deferens at 10 nM concentration; assay type: functional
[3] = biological target: T1, Substance-K receptor (Rattus norvegicus); experiment: Antagonistic activity against Tachykinin receptor 2 in rat vas deferens at 30 nM concentration; assay type: functional
Substance-K receptor = biological target: T2, Substance-K receptor (Rattus norvegicus, UniProt P16610); experiment: pA2 value against Tachykinin receptor 2 in rat vas deferens; assay type: tissue-based; conditions: for Kb: read-out: pA2 (converted)
T2 sequence (P16610 whole entry): T1 sequence (whole entry)

Row | Structure (SMILES) | Emax [1] [%] | Emax [2] [%] | Emax [3] [%] | Kb (Substance-K receptor) [nM] | pA2 (Substance-K receptor)
1 | CSCC[C@@H]1NC(=O)[C@H](CC(C)C)NC(=O)[C@@H]2CNC(=O)C[C@H](NC1=O)C(=O)N[C@@H](Cc1c[nH]c3ccccc13)C(=O)N[C@@H](Cc1ccccc1)C(=O)N2 (cyclo(DWF[Dap]LM); lactam 1-4) | 94 | 95 | 96 | 6.17 | –
2 | C=C1NC(=O)[C@H](CC(C)C)NC(=O)[C@@H]2CNC(=O)C[C@H](NC1=O)C(=O)N[C@@H](Cc1c[nH]c3ccccc13)C(=O)N[C@@H](Cc1ccccc1)C(=O)N2 (cyclo(DWF[Dap]L[Dha]); lactam 1-4) | – | – | – | – | 9.65
3 | CC(C)C[C@@H]1NC(=O)[C@@H]2CNC(=O)C[C@H](NC(=O)[C@H](CSCC3O[C@@H](O)C(O)[C@H](O)[C@H]3O)CNC1=O)C(=O)N[C@@H](Cc1c[nH]c3ccccc13)C(=O)N[C@@H](Cc1ccccc1)C(=O)N2 (some centres undefined) (cyclo(DWF[Dap]L[X1]); lactam 1-4) | 92 | 96 | 99 | 5.62 | –
